From patent US20140243292A1, “SUBSITUTED 2-(CHROMAN-6-YLOXYL)-THIAZOLES AND THEIR USE AS PHARMACEUTICALS” (Sanofi, priority 2011, published 2014) come the findings set out here.

Molecules are shown by their SMILES. Counter-ions that a name gives are not always drawn.

In one test the target is T1, human NCX1 (Homo sapiens, UniProt P32418).
T1 construct: expressed in transfected cells
The experiment in a line: NCX1 inhibition, reverse mode (Ca2+ influx into cells), FLIPR Fluo-4 assay. Type of test: cell-based. The conditions noted are these: NCX1 reverse mode; at 30 μM; read-out: Inhibition in % at 30 μM (NCX1rv; IC50 value not determined). The procedure, abridged:
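Max−min Fluo-4 fluorescence (520 nm, FLIPR, 240 points at 2 s) after 20 µM final gramicidin, which drives Na+ loading and reverse-mode Ca2+ entry, gave % inhibition and IC50. Test compound was preincubated 45 min at 16 °C with Fluo-4-loaded CHO cells stably expressing human NCX1, in pH 7.4 buffer containing 3.5 mM CaCl2 and probenecid.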
The term inhibition denotes the percentage by which the read-out fell short of the control. For `CC(C)c1ccc(NC(=O)c2cnc(Oc3ccc4c(c3)CC[C@@H](c3ccccc3)O4)s2)cc1` [compound 280], the inhibition at 30 µM came to 38%.
`CC(C)C[C@@H](NC(=O)c1cnc(Oc2ccc3c(c2)CC[C@@H](c2ccccc2)O3)s1)C(=O)OC(C)(C)C` [compound 228]: the inhibition at 30 µM was 46%.

The same test, now with this note: inhibition of NCX1 in reverse mode (Ca2+ influx into cells); read-out: NCX1rv IC50.
The term IC50 denotes the concentration needed to halve the response being measured. Consider `Cc1n[nH]c(C)c1C(C)NC(=O)c1cnc(Oc2ccc3c(c2)CCC(c2ccccc2)O3)s1` (stereo not drawn) [compound 31], for which the IC50 is 1000 nM.
`O=C(c1cnc(Oc2ccc3c(c2)CC[C@@H](c2ccccc2)O3)s1)N1CCCCC1` [compound 288]: the IC50 turned out to be 400 nM.
Regarding `O=C(NCc1ccno1)c1cnc(Oc2ccc3c(c2)CCC(c2ccc(Cl)nc2)O3)s1` (stereo not drawn) [compound 277, hydrochloride], the IC50 was 2000 nM.
As for `COC(=O)[C@@H]1CCCN1C(=O)c1cnc(Oc2ccc3c(c2)CC[C@@H](c2ccccc2)O3)s1` [compound 185], the IC50 came to 500 nM.
As to `COC(=O)CNC(=O)c1cnc(Oc2ccc3c(c2)CC[C@@H](c2ccccc2)O3)s1` [compound 181], the half-inhibitory concentration (IC50) turned out to be 200 nM.
Turning to `CCOC(=O)[C@H](C)NC(=O)c1cnc(Oc2ccc3c(c2)CC[C@@H](c2ccccc2)O3)s1` [compound 180], the 50% inhibitory concentration (IC50) stood at 200 nM.
Still for that read-out and setting: in the case of `Cc1noc(C)c1CCNC(=O)c1cnc(Oc2ccc3c(c2)CCC(c2cccc(O)c2)O3)s1` (stereo not drawn) [compound 173] it was 2300 nM; in that of `COC(=O)CNCc1cnc(Oc2ccc3c(c2)CC[C@@H](c2ccccc2)O3)s1` [compound 245], 100 nM.
With `O=C(Cc1cccnc1)NCc1cnc(Oc2ccc3c(c2)CCC(c2cccc(F)c2)O3)s1` (stereo not drawn) [compound 45, hydrochloride], the IC50 was 100 nM.
With `O=C(CCn1cccn1)NCc1cnc(Oc2ccc3c(c2)CCC(c2ccccc2)O3)s1` (stereo not drawn) [compound 90], the IC50 worked out at 600 nM.
On to `CS(=O)(=O)c1ccc(C2CCc3cc(Oc4ncc(C(=O)NCc5ccno5)s4)ccc3O2)cc1` (stereo not drawn) [compound 301], for which the 50% inhibitory concentration (IC50) was found to be 6900 nM.
As for `O=C(NCc1ccncc1)c1cnc(Oc2ccc3c(c2)CCC(c2cccc(O)c2)O3)s1` (stereo not drawn) [compound 174, hydrochloride], the IC50 worked out at 800 nM.
With `O=C(NCc1nnc2ccccn12)c1cnc(Oc2ccc3c(c2)CCC(c2ccccc2)O3)s1` (stereo not drawn) [compound 35], the IC50 stood at 600 nM.
Take `Cc1cccc(C)c1C1CCc2cc(Oc3ncc(C(=O)NCc4ccno4)s3)ccc2O1` (stereo not drawn) [compound 331]: the IC50 amounted to 5500 nM.
The same measure, in the same setting: for `O=C(NC1(C(=O)O)CC1)c1cnc(Oc2ccc3c(c2)CC[C@@H](c2ccccc2)O3)s1` [compound 199] the value was 1000 nM; for `CCOC(=O)[C@H](Cc1ccccc1)NC(=O)c1cnc(Oc2ccc3c(c2)CC[C@@H](c2ccccc2)O3)s1` [compound 219], 4800 nM.
On to `c1ccc(C2CCc3cc(Oc4ncc(CNCC5CC5)s4)ccc3O2)cc1` (stereo not drawn) [compound 120], for which the IC50 worked out at 300 nM.
For the compound `Cc1nccc(CNC(=O)c2cnc(Oc3ccc4c(c3)CCC(c3ccccc3)O4)s2)n1` (stereo not drawn) [compound 21], the half-inhibitory concentration (IC50) was determined as 100 nM.
As to `Cc1nc(Oc2ccc3c(c2)CC[C@@H](c2ccccc2)O3)sc1C(=O)NCc1ccncc1` [compound 98, hydrochloride], the IC50 amounted to 300 nM.
Regarding `OCCNCc1cnc(Oc2ccc3c(c2)CC[C@@H](c2ccccc2)O3)s1` [compound 266], the IC50 came out at 100 nM.
Consider `O=C(c1cnc(Oc2ccc3c(c2)CC[C@@H](c2ccccc2)O3)s1)N1CC[C@H]2CNC[C@H]21` [compound 283, hydrochloride], for which the IC50 is 600 nM.
`CC(C)NCc1cnc(Oc2ccc3c(c2)CCC(c2ccccc2)O3)s1` (stereo not drawn) [compound 113]: the IC50 worked out at 300 nM.
`O=C(NCc1ccno1)c1cnc(Oc2ccc3c(c2)CCC(c2ccsc2)O3)s1` (stereo not drawn) [compound 212]: the IC50 amounted to 300 nM.
As for `CC(C)CNCc1cnc(Oc2ccc3c(c2)CCC(c2ccccc2)O3)s1` (stereo not drawn) [compound 101], the IC50 was determined as 400 nM.
For the compound `Cc1nc(Oc2ccc3c(c2)CC[C@@H](c2ccccc2)O3)sc1C(=O)NCCc1ccncc1` [compound 169, hydrochloride], the IC50 worked out at 300 nM.
As to `CCOC(=O)[C@H](Cc1ccccc1)NC(=O)c1cnc(Oc2ccc3c(c2)CCC(c2cccnc2)O3)s1` (stereo partly drawn) [compound 262], the IC50 was 800 nM.
As for `CC[C@H](C)[C@H](NC(=O)c1cnc(Oc2ccc3c(c2)CCC(c2cccnc2)O3)s1)C(=O)OC` (stereo partly drawn) [compound 261], the IC50 turned out to be 3100 nM.
Consider `Cc1nccc(CNC(=O)c2cnc(Oc3ccc4c(c3)CCC(c3cccc(F)c3)O4)s2)n1` (stereo not drawn) [compound 56, hydrochloride], for which the IC50 was 200 nM.
For the compound `CCn1nccc1CNC(=O)c1cnc(Oc2ccc3c(c2)CCC(c2ccccc2)O3)s1` (stereo not drawn) [compound 3], the IC50 was 400 nM.
The same measure, in the same setting: in the case of `Cc1n[nH]c(C)c1S(=O)(=O)NCc1cnc(Oc2ccc3c(c2)CCC(c2ccccc2)O3)s1` (stereo not drawn) [compound 131] it was 23800 nM; in that of `CC(C)NC(=O)c1cnc(Oc2ccc3c(c2)CCC(c2ccccc2)O3)s1` (stereo not drawn) [compound 320], 300 nM.
Take `c1ccc(C2CCc3cc(Oc4ncc(CNCc5nnc6ccccn56)s4)ccc3O2)cc1` (stereo not drawn) [compound 156]: the IC50 is 400 nM.
The same measure, in the same setting: in the case of `O=C(NCc1ccno1)c1cnc(Oc2ccc3c(c2)CCC(c2cnccn2)O3)s1` (stereo not drawn) [compound 309] it was 4700 nM; in that of `CCOC(=O)C(CNC(=O)c1cnc(Oc2ccc3c(c2)CC[C@@H](c2ccccc2)O3)s1)CC(C)C` (stereo partly drawn) [compound 230], 1500 nM.
As for `CCn1cc(CNC(=O)c2cnc(Oc3ccc4c(c3)CCC(c3ccccc3)O4)s2)cn1` (stereo not drawn) [compound 1], the half-maximal inhibitory concentration (IC50) was 300 nM.
As to `c1ccc(C2CCc3cc(Oc4ncc(CNCc5ccnc(N6CCOCC6)c5)s4)ccc3O2)cc1` (stereo not drawn) [compound 162], the IC50 was found to be 400 nM.
In the case of `O=C(NCc1ccncc1)c1cnc(Oc2ccc3c(c2Cl)CCC(c2ccccc2)O3)s1` (stereo not drawn) [compound 55, hydrochloride], the IC50 was determined as 1200 nM.
`N[C@H]1C[C@@H]1NC(=O)c1cnc(Oc2ccc3c(c2)CCC(c2cccnc2)O3)s1` (stereo partly drawn) [compound 267, hydrochloride]: the IC50 is 600 nM.
In the case of `Cc1cc(CNCc2cnc(Oc3ccc4c(c3)CCC(c3ccccc3)O4)s2)n(C)n1` (stereo not drawn) [compound 141], the IC50 stood at 400 nM.
Consider `CCc1ccccc1C1CCc2cc(Oc3ncc(C(=O)NCc4ccno4)s3)ccc2O1` (stereo not drawn) [compound 324], for which the half-inhibitory concentration (IC50) was determined as 500 nM.
Take `COCCNCc1cnc(Oc2ccc3c(c2)CCC(c2ccccc2)O3)s1` (stereo not drawn) [compound 114]: the IC50 is 200 nM.
As to `Cc1ncoc1C(=O)NCc1cnc(Oc2ccc3c(c2)CCC(c2ccccc2)O3)s1` (stereo not drawn) [compound 69], the IC50 came out at 500 nM.
For the compound `O=C(O)C[C@H](O)[C@H](CC1CCCCC1)NC(=O)c1cnc(Oc2ccc3c(c2)CC[C@@H](c2ccccc2)O3)s1` [compound 240], the IC50 was 1100 nM.
Still for that read-out and setting: in the case of `Cc1cc(CNC(=O)c2cnc(Oc3ccc4c(c3)CCC(c3ccccc3)O4)s2)ccn1` (stereo not drawn) [compound 9] it was 800 nM; in that of `O=C(NCc1cnc(Oc2ccc3c(c2)CCC(c2ccccc2)O3)s1)c1ccncc1Cl` (stereo not drawn) [compound 80], 200 nM.
Take `Cc1c(CNCc2cnc(Oc3ccc4c(c3)CCC(c3ccccc3)O4)s2)cnn1C` (stereo not drawn) [compound 138]: the IC50 stood at 300 nM.
On the same count and under the same terms, in the case of `C1=C(CNCc2cnc(Oc3ccc4c(c3)CCC(c3ccccc3)O4)s2)N2CCCN=C2S1` (stereo not drawn) [compound 144] it was 800 nM.
As for `COC(=O)C1(NC(=O)c2cnc(Oc3ccc4c(c3)CC[C@@H](c3ccccc3)O4)s2)CCCC1` [compound 187], the half-maximal inhibitory concentration (IC50) was 600 nM.
`CN1CCN(C(=O)c2cnc(Oc3ccc4c(c3)CCC(c3ccccc3)O4)s2)CC1` (stereo not drawn) [compound 313]: the IC50 came to 400 nM.
With `O=C(NCc1ccncc1)c1cnc(Oc2ccc3c(c2)CCC(c2ccccc2)O3)s1` (stereo not drawn) [compound 4], the IC50 is 300 nM.
For the compound `Cc1cc(CNCc2cnc(Oc3ccc4c(c3)CCC(c3ccccc3)O4)s2)on1` (stereo not drawn) [compound 160], the IC50 amounted to 200 nM.
Consider `COc1c(F)cccc1C1CCc2cc(Oc3ncc(C(=O)NCc4ccno4)s3)ccc2O1` (stereo not drawn) [compound 366], for which the concentration for half-maximal inhibition (IC50) stood at 180 nM.
In the case of `O=C(N[C@H](CO)c1ccccc1)c1cnc(Oc2ccc3c(c2)CC[C@@H](c2ccccc2)O3)s1` [compound 201], the IC50 was determined as 300 nM.
For `CC(NCc1cnc(Oc2ccc3c(c2)CCC(c2ccccc2)O3)s1)C(C)(C)C` (stereo not drawn) [compound 105], the IC50 amounted to 800 nM.
For the compound `COC(=O)[C@@H]1CC(C)(C)CN1C(=O)c1cnc(Oc2ccc3c(c2)CC[C@@H](c2ccccc2)O3)s1` [compound 223], the IC50 came out at 1300 nM.
With `Cc1noc(C)c1CCNC(=O)c1cnc(Oc2ccc3c(c2)CCC(c2ccccc2)O3)s1` (stereo not drawn) [compound 34], the IC50 was 200 nM.
Turning to `OCCNCc1cnc(Oc2ccc3c(c2)CCC(c2ccccc2)O3)s1` (stereo not drawn) [compound 311], the IC50 was 100 nM.
With `Nc1cc(CNC(=O)c2cnc(Oc3ccc4c(c3)CCC(c3ccccc3)O4)s2)ccn1` (stereo not drawn) [compound 11], the IC50 is 400 nM.
With `Cc1ccc(F)cc1C1CCc2cc(Oc3ncc(C(=O)N4CC[C@@H](O)C4)s3)ccc2O1` (stereo partly drawn) [compound 356], the IC50 stood at 540 nM.
As for `CCn1cc(S(=O)(=O)NCc2cnc(Oc3ccc4c(c3)CCC(c3ccccc3)O4)s2)cn1` (stereo not drawn) [compound 132], the IC50 was found to be 300 nM.
`O=C(NC[C@H]1CCCC[C@H]1O)c1cnc(Oc2ccc3c(c2)CC[C@@H](c2ccccc2)O3)s1` [compound 207]: the IC50 stood at 500 nM.
The same measure, in the same setting: for `O=C(Cc1ccncc1)NCc1cnc(Oc2ccc3c(c2)CCC(c2ccccc2)O3)s1` (stereo not drawn) [compound 43, hydrochloride] the value was 300 nM.
Consider `O=C(c1cnc(Oc2ccc3c(c2)CCC(c2ccccc2)O3)s1)N1CCCCC1` (stereo not drawn) [compound 316], for which the IC50 amounted to 500 nM.
In the case of `CC(NC(=O)c1cnc(Oc2ccc3c(c2)CCC(c2ccccc2)O3)s1)c1ccncc1` (stereo not drawn) [compound 6], the IC50 amounted to 400 nM.
